The record followed here is ChEMBL document CHEMBL5380795, “Design, Synthesis, and Bioactivity Investigation of Cyclic Lipopeptide Antibiotics Containing Eight to Nine Amino Acids” (J Med Chem, 2023).

Series [1] relates to Staphylococcus aureus. The series is described as follows: Antibacterial activity against methicillin resistant Staphylococcus aureus ATCC 33591 assessed as inhibition of bacterial growth incubated for 18 to 24 hrs by broth microdilution method. In kind it is functional. As to conditions: time 18-24 hrs. In general terms: In broth dilution the organism is exposed to a series of concentrations in liquid medium.

The subject of series [2] is Staphylococcus aureus. Put plainly: Antibacterial activity against Staphylococcus aureus ATCC 29213 assessed as inhibition of bacterial growth incubated for 18 to 24 hrs by broth microdilution method. In kind it is functional. Conditions: time 18-24 hrs.
The test system of series [3] is Staphylococcus epidermidis. The series is described as follows: Antibacterial activity against methicillin resistant Staphylococcus epidermidis clinical isolate 19-5 assessed as inhibition of bacterial growth incubated for 18 to 24 hrs by broth microdilution method. It is filed as functional. Conditions: time 18-24 hrs.
Series [4] deals with Staphylococcus epidermidis. The series is described as follows: Antibacterial activity against methicillin resistant Staphylococcus epidermidis clinical isolate 19-6 assessed as inhibition of bacterial growth incubated for 18 to 24 hrs by broth microdilution method. It is filed as functional. As to conditions: time 18-24 hrs.
Series [5] relates to Escherichia coli. Put plainly: Antibacterial activity against Escherichia coli ATCC BAA-2523 assessed as inhibition of bacterial growth incubated for 18 to 24 hrs by broth microdilution method. It is filed as functional. Conditions: time 18-24 hrs.
Series [6] relates to Escherichia coli. The series is described as follows: Antibacterial activity against Escherichia coli NCTC 13353 assessed as inhibition of bacterial growth incubated for 18 to 24 hrs by broth microdilution method. In kind it is functional. As to conditions: time 18-24 hrs.
For series [7], the system named is Escherichia coli. Put plainly: Antibacterial activity against Escherichia coli clinical isolate 19-2 assessed as inhibition of bacterial growth incubated for 18 to 24 hrs by broth microdilution method. In kind it is functional. As to conditions: time 18-24 hrs.
Series [8] concerns Escherichia coli. Put plainly: Antibacterial activity against KPC producing Escherichia coli ATCC BAA-2340 assessed as inhibition of bacterial growth incubated for 18 to 24 hrs by broth microdilution method. It is filed as functional. Conditions: time 18-24 hrs.
The test system of series [9] is Klebsiella pneumoniae. Put plainly: Antibacterial activity against carbapenem resistant Klebsiella pneumoniae clinical isolate 19-15 assessed as inhibition of bacterial growth incubated for 18 to 24 hrs by broth microdilution method. It is filed as functional. Conditions: time 18-24 hrs.
In series [10] the test system is Klebsiella pneumoniae. Put plainly: Antibacterial activity against carbapenem resistant Klebsiella pneumoniae clinical isolate 19-17 assessed as inhibition of bacterial growth incubated for 18 to 24 hrs by broth microdilution method. It is filed as functional. Conditions: time 18-24 hrs.
The test system of series [11] is Klebsiella pneumoniae. Put plainly: Antibacterial activity against KPC producing Klebsiella pneumoniae ATCC BAA-1705 assessed as inhibition of bacterial growth incubated for 18 to 24 hrs by broth microdilution method. In kind it is functional. Conditions: time 18-24 hrs.
In series [12] the test system is Pseudomonas aeruginosa. Put plainly: Antibacterial activity against Pseudomonas aeruginosa clinical isolate 19-1 assessed as inhibition of bacterial growth incubated for 18 to 24 hrs by broth microdilution method. It is filed as functional. Conditions: time 18-24 hrs.
In series [13] the test system is Pseudomonas aeruginosa. The series is described as follows: Antibacterial activity against carbapenem resistant Pseudomonas aeruginosa clinical isolate 19-3 assessed as inhibition of bacterial growth incubated for 18 to 24 hrs by broth microdilution method. In kind it is functional. Conditions: time 18-24 hrs.
Series [14] has as its system Pseudomonas aeruginosa. Put plainly: Antibacterial activity against carbapenem resistant Pseudomonas aeruginosa clinical isolate 17-1 assessed as inhibition of bacterial growth incubated for 18 to 24 hrs by broth microdilution method. In kind it is functional. Conditions: time 18-24 hrs.
The test system of series [15] is Pseudomonas aeruginosa. The series is described as follows: Antibacterial activity against Pseudomonas aeruginosa ATCC 27853 assessed as inhibition of bacterial growth incubated for 18 to 24 hrs by broth microdilution method. Conditions: time 18-24 hrs. It is filed as functional.
In series [16] the test system is Acinetobacter baumannii. Put plainly: Antibacterial activity against carbapenem resistant Acinetobacter baumannii clinical isolate 19-8 assessed as inhibition of bacterial growth incubated for 18 to 24 hrs by broth microdilution method. As to conditions: time 18-24 hrs. In kind it is functional.
For series [17], the system named is Acinetobacter baumannii. The series is described as follows: Antibacterial activity against oxacillinase-27 producing Acinetobacter baumannii NCTC 13304 assessed as inhibition of bacterial growth incubated for 18 to 24 hrs by broth microdilution method. In kind it is functional. Conditions: time 18-24 hrs.
Series [18] is described as follows: Cytotoxicity against human HK-2 cells assessed as inhibition of cell growth incubated for 72 hrs by CCK-8 assay. In kind it is toxicity, cell-based. A general note: Formazan colour is commonly taken as a measure of viable cells.
Series [19] is described as follows: Selectivity index, ratio of IC50 for cytotoxicity against human HK-2 cells to MIC for antibacterial activity against Escherichia coli ATCC BAA-2523. It is filed as toxicity, cell-based.

In brackets after ≈: the same amount, converted by molar mass. Bridge positions count the residues as written; N and C are the ends. Square brackets hold non-standard residues; d marks the D form. Peptide text beside a SMILES is read from it. * marks the point of attachment. Decanoyl(3R-OH) = CCCCCCC[C@@H](O)CC(=O)*; dDab = NCC[C@@H](N)C(=O)O; Dab = NCC[C@H](N)C(=O)O Some results are limits rather than exact numbers.

As to `CC(C)C[C@@H]1NC(=O)[C@@H](CC(C)C)NC(=O)[C@H](CCN)NC(=O)[C@@H](NC(=O)[C@@H](CCN)NC(=O)CCCCCc2ccccc2)CCNC(=O)[C@H]([C@@H](C)O)NC(=O)[C@H](CCN)NC(=O)[C@H](CCN)NC1=O`, the MIC was > 64 µg/mL with Staphylococcus aureus [1]; > 64 µg/mL with Staphylococcus aureus [2]; 8 µg/mL (≈ 7.98 µM) in series [3]; 64 µg/mL (≈ 63.9 µM) in series [4]; 16 µg/mL (≈ 16 µM) with Escherichia coli [5]; 32 µg/mL (≈ 31.9 µM) in the series on Escherichia coli [6]. The minimum inhibitory concentration (MIC) in the series on Escherichia coli [7] is 16 µg/mL (≈ 16 µM); in the series on Escherichia coli [8] it was 8 µg/mL (≈ 7.98 µM); in the series on Klebsiella pneumoniae [9] it was > 64 µg/mL; with Klebsiella pneumoniae [10], > 64 µg/mL; in the series with Klebsiella pneumoniae [11] it was 8 µg/mL (≈ 7.98 µM); in the series with Pseudomonas aeruginosa [12] it was 2 µg/mL (≈ 2 µM). In addition, the minimal inhibitory concentration (MIC) in the series with Pseudomonas aeruginosa [13] is 4 µg/mL (≈ 3.99 µM); in the series on Pseudomonas aeruginosa [14], 4 µg/mL (≈ 3.99 µM); in the series on Pseudomonas aeruginosa [15], 1 µg/mL (≈ 0.998 µM); with Acinetobacter baumannii [16], > 64 µg/mL; in the series with Acinetobacter baumannii [17], > 64 µg/mL. For the same compound, the IC50 at 72 h in series [18] is 309 µg/mL (≈ 309 µM). In addition, the selectivity ratio in series [19] came to 19.3.

Regarding `CCCCCCCCCC(=O)N[C@H](CCN)C(=O)N[C@H]1CCNC(=O)[C@H]([C@@H](C)O)NC(=O)[C@H](CCN)NC(=O)[C@H](CCN)NC(=O)[C@H](CC(C)C)NC(=O)[C@@H](Cc2ccc(Cl)c(Cl)c2)NC(=O)[C@H](CCN)NC1=O`, the MIC in the series with Staphylococcus aureus [1] worked out at 32 µg/mL (≈ 29.5 µM); with Staphylococcus aureus [2], 16 µg/mL (≈ 14.7 µM); in series [3], 4 µg/mL (≈ 3.69 µM); in series [4] it was 4 µg/mL (≈ 3.69 µM); in the series with Escherichia coli [5], 2 µg/mL (≈ 1.84 µM); with Escherichia coli [6] it was 4 µg/mL (≈ 3.69 µM). The minimal inhibitory concentration (MIC) in the series with Escherichia coli [7] came to 2 µg/mL (≈ 1.84 µM); in the series on Escherichia coli [8], 2 µg/mL (≈ 1.84 µM); in the series on Klebsiella pneumoniae [9], 4 µg/mL (≈ 3.69 µM); in the series with Klebsiella pneumoniae [10], 4 µg/mL (≈ 3.69 µM); in the series with Klebsiella pneumoniae [11] it was 4 µg/mL (≈ 3.69 µM); with Pseudomonas aeruginosa [12], 4 µg/mL (≈ 3.69 µM). Further, the MIC with Pseudomonas aeruginosa [13] turned out to be 4 µg/mL (≈ 3.69 µM); in the series with Pseudomonas aeruginosa [14] it was 16 µg/mL (≈ 14.7 µM); with Pseudomonas aeruginosa [15], 16 µg/mL (≈ 14.7 µM); with Acinetobacter baumannii [16], 16 µg/mL (≈ 14.7 µM); in the series with Acinetobacter baumannii [17], 16 µg/mL (≈ 14.7 µM). The half-maximal inhibitory concentration (IC50) at 72 h in [18] came to 28.5 µg/mL (≈ 26.3 µM). Further, the selectivity ratio in series [19] turned out to be 14.3.

With `CCCCCCC[C@@H](O)CC(=O)N[C@H](CCN)C(=O)N[C@H]1CCNC(=O)[C@H]([C@@H](C)O)NC(=O)[C@H](CCN)NC(=O)[C@H](CCN)NC(=O)[C@H](CC(C)C)NC(=O)[C@@H](Cc2ccccc2)NC(=O)[C@H](CCN)NC1=O` ({Decanoyl(3R-OH)}-[dDab][Dab][Dab][dF]L[Dab][Dab]T; lactam 2-C), the minimum inhibitory concentration (MIC) in the series on Staphylococcus aureus [1] is > 64 µg/mL; in the series with Staphylococcus aureus [2] it was > 64 µg/mL; in series [3], 8 µg/mL (≈ 7.75 µM); in series [4] it was 32 µg/mL (≈ 31 µM); in the series on Escherichia coli [5], 1 µg/mL (≈ 0.969 µM); in the series with Escherichia coli [6], 4 µg/mL (≈ 3.87 µM). Besides, the minimum inhibitory concentration (MIC) was determined as 2 µg/mL (≈ 1.94 µM) in the series with Escherichia coli [7]; 1 µg/mL (≈ 0.969 µM) in the series with Escherichia coli [8]; 2 µg/mL (≈ 1.94 µM) in the series with Klebsiella pneumoniae [9]; 4 µg/mL (≈ 3.87 µM) in the series with Klebsiella pneumoniae [10]; 0.5 µg/mL (≈ 0.484 µM) with Klebsiella pneumoniae [11]; 0.5 µg/mL (≈ 0.484 µM) with Pseudomonas aeruginosa [12]. For the same compound, the MIC is 1 µg/mL (≈ 0.969 µM) with Pseudomonas aeruginosa [13]; 0.5 µg/mL (≈ 0.484 µM) in the series on Pseudomonas aeruginosa [14]; 0.5 µg/mL (≈ 0.484 µM) in the series with Pseudomonas aeruginosa [15]; 32 µg/mL (≈ 31 µM) in the series on Acinetobacter baumannii [16]; 32 µg/mL (≈ 31 µM) in the series on Acinetobacter baumannii [17]. The half-inhibitory concentration (IC50) at 72 h in [18] amounted to 125 µg/mL (≈ 121 µM). Also, the selectivity ratio in series [19] came to 125.

With `CCCCCCCCCC(=O)N[C@H](CCN)C(=O)N[C@H]1CCNC(=O)[C@H]([C@@H](C)O)NC(=O)[C@H](CCN)NC(=O)[C@H](CCN)NC(=O)[C@H](CC(C)C)NC(=O)[C@@H](Cc2ccc(N)cc2)NC(=O)[C@H](CCN)NC1=O`, the MIC with Staphylococcus aureus [1] is > 64 µg/mL; in the series with Staphylococcus aureus [2], > 64 µg/mL; in series [3], 16 µg/mL (≈ 15.5 µM); in series [4], 32 µg/mL (≈ 31 µM); in the series with Escherichia coli [5], 64 µg/mL (≈ 62.1 µM); with Escherichia coli [6], > 64 µg/mL. In addition, the MIC was 64 µg/mL (≈ 62.1 µM) in the series on Escherichia coli [7]; 64 µg/mL (≈ 62.1 µM) in the series on Escherichia coli [8]; > 64 µg/mL with Klebsiella pneumoniae [9]; > 64 µg/mL in the series with Klebsiella pneumoniae [10]; > 64 µg/mL in the series with Klebsiella pneumoniae [11]; > 64 µg/mL in the series with Pseudomonas aeruginosa [12]. In addition, the minimal inhibitory concentration (MIC) in the series with Pseudomonas aeruginosa [13], in the series on Pseudomonas aeruginosa [14], in the series on Pseudomonas aeruginosa [15], in the series on Acinetobacter baumannii [16] and with Acinetobacter baumannii [17] was > 64 µg/mL each time. Also, in series [18], the IC50 at 72 h turned out to be 228 µg/mL (≈ 221 µM). The selectivity ratio in [19] is 3.6.

The MIC is the smallest concentration in the dilution series that meets the test's criterion for growth inhibition. One may read the IC50 as the midpoint of a concentration-inhibition curve.
